Two molecules from patent US20020058686A1, “Medicament” (SmithKline Beecham p.l.c., priority 1990, published 2002) can be followed below.

For the molecule `CCCCc1nc2cc(Br)cc(C(=O)O)c2n1Cc1ccccc1Cl` [Example 4, 5-Bromo-2-n-butyl-1-(2-chlorophenyl)methyl-1H-benzimidazole-7-carboxylic Acid], the melting point (usually the temperature, or range, at which the solid turns liquid) lay in the range of 254 to 255 °C.
In the case of `CCCSc1ncc(C[C@H](NC(=O)CCC)C(=O)O)n1Cc1ccccc1Cl` [Example 1, 3-[(2-Chlorophenyl)methyl]-2-propylthio-N-butyrylhistidine], the melting point lay in the range of 178 to 181 °C.
